The record followed here is patent US20230337678A1, “NITRIC OXIDE-RELEASING ANTIBACTERIAL COMPOUNDS, FORMULATIONS, AND METHODS PERTAINING THERETO” (KNOW BIO, LLC, priority 2020, published 2023).

One data set has as its system Mycobacterium abscessus. In words: MIC/MBC assays, CLSI method. In kind it is cell-based. The conditions noted are these: Table 14, unit not given.

Turning to `OC[C@H]1O[C@@H]2O[C@H]3[C@H](O)[C@@H](O)[C@@H](O[C@H]4[C@H](O)[C@@H](O)[C@@H](O[C@H]5[C@H](O)[C@@H](O)[C@@H](O[C@H]6[C@H](O)[C@@H](O)[C@@H](O[C@H]7[C@H](O)[C@@H](O)[C@@H](O[C@H]8[C@H](O)[C@@H](O)[C@@H](O[C@H]1[C@H](O)[C@H]2O)O[C@@H]8CO)O[C@@H]7CO)O[C@@H]6CO)O[C@@H]5CO)O[C@@H]4CO)O[C@@H]3CO` [0% MTDD/100% β-cyclodextrin, β-cyclodextrin], the NO-loading (compositions of MTDD (NCT-19-096) and β-cyclodextrin) came out at 0.0 µmol/mg.
`C[C@@H]1CCC[C@H](C)N1[N+]([O-])=N[O-].[Na+]` [cis-DMP/NO]: the MBC in the data set on Mycobacterium abscessus (M. abscessus N0010, clinical) turned out to be 4; against Mycobacterium abscessus (M. abscessus N0016, clinical), 4; in the data set with Mycobacterium abscessus (M. abscessus N0017, clinical), 4; against Mycobacterium abscessus (M. abscessus N0018, clinical), 4; in the data set with Mycobacterium abscessus (M. abscessus N0019, clinical), 4; with Mycobacterium abscessus (M. abscessus N0020, clinical) it was 2. For the same molecule, the MBC against Mycobacterium abscessus (M. abscessus N0046) was found to be 4. Further, the MIC was determined as 1 with Mycobacterium abscessus (M. abscessus N0010, clinical); 2 with Mycobacterium abscessus (M. abscessus N0016, clinical); 2 in the data set with Mycobacterium abscessus (M. abscessus N0017, clinical); 1 in the data set with Mycobacterium abscessus (M. abscessus N0018, clinical); 2 in the data set with Mycobacterium abscessus (M. abscessus N0019, clinical); 1 against Mycobacterium abscessus (M. abscessus N0020, clinical). In the data set on Mycobacterium abscessus (M. abscessus N0046), this molecule returned an MIC of 2. Besides, where the note is “Table 14, unit not given”, the “NO Load” value is 6.9.
